Measured values published in patent US10238756B2, “Lipid nanoparticles and uses thereof” (Tongli Biomedical Co., Ltd., priority 2015, dated 2019).

Columns and labels:
[1] = Storage stability of ICG fluorescence in the dark at 4° C.; assay type: physicochemical; conditions: for % ICG fluorescence (8 months): stored in the dark at 4° C. for 8 months, % of initial fluorescence intensity, mean ± SD
Experimental: (§1) Fluorescence. Fluorescence measurements were performed on a Victor3 V 1420-040 Multilabel Plate Reader (Perkin-Elmer, Waltham, Mass.) with a tungsten-halogen continuous wave lamp (75 W, spectral range of 320-800 nm) and excitation (769±41 nm) and emission (832±37 nm) filters (Semrock, Rochester, N.Y.) using 100μL of sample in flat bottom, untreated 96-well plates (Grenier Bio-one, Monroe, N.C.).
(§2) Light Exposure and Storage Stability. […] For storage stability (FIG. 12), samples were placed in the dark at 4° C. for up to 313 days. […] The time-dependent decay of ICG fluorescence was analyzed on the basis of an exponential decay model with GraphPad Prism version 6.0 (GraphPad Software, San Diego, Calif.). The data were expressed as t½ (half-life) and k (rate constant).

[2] = tested on: popliteal and sciatic lymph nodes; assay: In vivo pharmacokinetics of fluorescence intensity in draining lymph nodes detected through skin; conditions: subcutaneous, mouse foot, N = 3
Experimental: (§3) In Vivo NIR Lymphatic Imaging in Mice. Mice were kept under pathogen-free conditions, exposed to a 12 h light-dark cycle, and received food ad libitum prior to imaging. All procedures were approved by the University of Washington Institutional Animal Care and Use Committee. Mice were anesthetized with 1.5% isoflurane, shaved to remove fur, and placed in a supine position on a 37° C. heat pad underneath an IVIS Lumina II NIR CCD camera (Perkin Elmer, Waltham, Mass.). Precontrast images were taken to confirm the absence of autofluorescence. Forty microliters of ICG-LNPs or free ICG was injected subcutaneously into the top of both rear feet. Immediately following injections, both feet were placed under gentle even pressure. Images were acquired for up to 120 min prior to euthanasia by cervical dislocation under anesthesia, upon which the skin was surgically opened to perform lymph node imaging.

[3] = Light exposure stability of ICG fluorescence; assay type: physicochemical
Experimental: as §1, §2

[4] = tested on: lymph nodes and vessels in mice; assay: In vivo NIR lymphatic imaging in mice after subcutaneous foot injection; design: species or system mouse; conditions: for max NIRF intensity: mean ± SEM (N = 3-4)
Experimental: as §3

SMILES: CC1(C)C(/C=C/C=C/C=C/C=C2\N(CCCCS(=O)(=O)O)c3ccc4ccccc4c3C2(C)C)=[N+](CCCCS(=O)(=O)[O-])c2ccc3ccccc3c21 [Free ICG, sodium 2-[7-[3,3-dimethyl-1-(4-sulfonatobutyl)benz[e]indolin-2-ylidene]hepta-1,3,5-trien-1-yl]-3,3-dimethyl-1-(4-sulfonatobutyl)benz]
- half-life ([1]; buffer, stored in the dark at 4° C., exponential decay model, (95% CI)): 28.6 h
- % ICG fluorescence (8 months) [1]: 0.3 +/− 0.2%
- % ICG fluorescence (8 months) ([1]; listed as free ICG): 0.3±0.2%
- k (rate constant) ([1]; stored in the dark at 4° C., exponential decay model): 0.582 day⁻¹
- AUC0-2 hr ([2]; fluorescence intensity in 1st draining lymph node (popliteal LN) through skin): 61.65 ± 34.83 a.u.*min
- Intensitymax ([2]; popliteal LN through skin): 0.66 ± 0.42 a.u.
- k ([2]; popliteal LN through skin): 0.19 ± 0.17 h⁻¹
- fluorescence intensity, % of the initial value ([3]; after 6 hours of light exposure, 2.0 μM ICG, overhead fluorescent light): 2.5±0.5%
- half-life at 2 μM ([3]; aqueous solution (free ICG in solution), light exposure, exponential decay model): 2.16 ± 0.3 min
- k ([3]; light exposure, exponential decay model): 19.2 ± 2.7 h⁻¹
- No. of nodes detected ([4]; Axillary): 2
- max NIRF intensity ([4]; Axillary LN): 0.8 ± 0.1 10^−5 a.u.
- No. of nodes detected ([4]; Gastric): 1-2
- max NIRF intensity ([4]; Gastric LN): 2.5 ± 1.3 10^−5 a.u.
- No. of nodes detected ([4]; Medial iliac): 1-2
- max NIRF intensity ([4]; Medial iliac LN): 4.1 ± 1.6 10^−5 a.u.
- max NIRF intensity ([4]; Pop afferent vessel): 0.6 ± 0.2 10^−5 a.u.
- max NIRF intensity ([4]; Pop efferent vessel): 0.6 ± 0.1 10^−5 a.u.
- No. of nodes detected ([4]; Popliteal (Pop)): 1
- max NIRF intensity ([4]; Popliteal (Pop) LN): 4.7 ± 2.2 10^−5 a.u.
- No. of nodes detected ([4]; Sciatic): 0
- max NIRF intensity ([4]; Sciatic LN): 0.6 ± 0.1 10^−5 a.u.
- ICG intensity mean of the popliteal lymph node ([4]; image collected below the skin, six minutes, 0.5 nmol of ICG subcutaneously in foot): 37.0
